Reference: the supplement of paper PMC6045584
± gives the standard deviation of the averaged measurements.

Key:
CANERTINIB [1] = compound: T1, C=CC(=O)Nc1cc2c(Nc3ccc(F)c(Cl)c3)ncnc2cc1OCCCN1CCOCC1 [CANERTINIB]; test: surviving fraction relative to DMSO-only wells; higher = less growth inhibition; conditions: exposure time: 5 days
Method in brief: (§1)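 A line counted only if its three screens reached replicate Pearson r >0.7 and median Z' >0.3. Tumour cells in log phase were seeded at 250–500 per well in 384-well plates and, after 24 hours, kept in continuous contact with inhibitors at 0.5, 1, 5, 10, 50, 100, 500 and 1000 nM for five days. Surviving fraction was taken from CellTiter-Glo luminescence relative to the median of DMSO-only wells.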

SNX-5422 [2] = compound: T2, CC1(C)CC(=O)c2c(C(F)(F)F)nn(-c3ccc(C(N)=O)c(N[C@H]4CC[C@H](OC(=O)CN)CC4)c3)c2C1 [SNX-5422]; test: as above; conditions: exposure time: 5 days
Method in brief: as §1

SAPACITABINE [3] = compound: T3, CCCCCCCCCCCCCCCC(=O)Nc1ccn([C@@H]2O[C@H](CO)[C@@H](O)[C@@H]2C#N)c(=O)n1 [SAPACITABINE]; test: as above; conditions: exposure time: 5 days
Method in brief: as §1

BI-2536 [4] = compound: T4, CC[C@@H]1C(=O)N(C)c2cnc(Nc3ccc(C(=O)NC4CCN(C)CC4)cc3OC)nc2N1C1CCCC1 [BI-2536]; test: as above; conditions: exposure time: 5 days
Method in brief: as §1

AFATINIB [5] = compound: T5, CN(C)C/C=C/C(=O)Nc1cc2c(Nc3ccc(F)c(Cl)c3)ncnc2cc1O[C@H]1CCOC1 [AFATINIB]; test: as above; conditions: exposure time: 5 days
Method in brief: as §1

MDV3100 [6] = compound: T6, CNC(=O)c1ccc(N2C(=S)N(c3ccc(C#N)c(C(F)(F)F)c3)C(=O)C2(C)C)cc1F [MDV3100]; test: as above; conditions: exposure time: 5 days
Method in brief: as §1

[7] = compound: Cn1cc(C2=Nc3cc(NC(=O)C(N)C4CCCCC4)cc4c3C2=CNNC4=O)cn1; test: as above; conditions: exposure time: 5 days
Method in brief: as §1

TIOGUANINE [8] = compound: T7, Nc1nc2[nH]cnc2c(=S)[nH]1 [TIOGUANINE]; test: as above; conditions: exposure time: 5 days
Method in brief: as §1

CANERTINIB [9] = compound: T1, CANERTINIB; test: area under dose-response curve of surviving fraction (unscaled, Aref=0) (surviving fraction x log10(nM)); higher = more resistant; conditions: exposure time: 5 days; dose range 0.5-1000 nM
Method in brief: (§2)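 Tumour cell lines in 384-well plates were exposed for five days to eight inhibitor concentrations from 0.5 to 1000 nM. Viability was read by CellTiter-Glo luminescence, normalised to DMSO-only wells, in three screens per line. Dose-response survival curves were fitted to surviving fractions by 3-parameter logistic regression in the drc R package. Area under the curve is the unscaled activity area (Aref = 0) over log10 dose.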

SNX-5422 [10] = compound: T2, SNX-5422; test: as above; conditions: exposure time: 5 days; dose range 0.5-1000 nM
Method in brief: as §2

SAPACITABINE [11] = compound: T3, SAPACITABINE; test: as above; conditions: exposure time: 5 days; dose range 0.5-1000 nM
Method in brief: as §2

BI-2536 [12] = compound: T4, BI-2536; test: as above; conditions: exposure time: 5 days; dose range 0.5-1000 nM
Method in brief: as §2

AFATINIB [13] = compound: T5, AFATINIB; test: as above; conditions: exposure time: 5 days; dose range 0.5-1000 nM
Method in brief: as §2

MDV3100 [14] = compound: T6, MDV3100; test: as above; conditions: exposure time: 5 days; dose range 0.5-1000 nM
Method in brief: as §2

[15] = compound: Cn1cc(C2=Nc3cc(NC(=O)C(N)C4CCCCC4)cc4c3C2=CNNC4=O)cn1; test: as above; conditions: exposure time: 5 days; dose range 0.5-1000 nM
Method in brief: as §2

TIOGUANINE [16] = compound: T7, TIOGUANINE; test: as above; conditions: exposure time: 5 days; dose range 0.5-1000 nM
Method in brief: as §2

Test System: HCC78 LUNG
- surviving fraction (CANERTINIB [1]; 0.5 nM): 0.848 ± 0.35
- surviving fraction (CANERTINIB [1]; 1 nM): 0.812 ± 0.13
- surviving fraction (CANERTINIB [1]; 5 nM): 0.946 ± 0.086
- surviving fraction (CANERTINIB [1]; 10 nM): 0.983 ± 0.23
- surviving fraction (CANERTINIB [1]; 50 nM): 0.638 ± 0.043
- surviving fraction (CANERTINIB [1]; 100 nM): 0.775 ± 0.084
- surviving fraction (CANERTINIB [1]; 500 nM): 0.532 ± 0.081
- surviving fraction (CANERTINIB [1]; 1000 nM): 0.426 ± 0.18
- surviving fraction (SNX-5422 [2]; 0.5 nM): 0.808 ± 0.27
- surviving fraction (SNX-5422 [2]; 1 nM): 1.2 ± 0.38
- surviving fraction (SNX-5422 [2]; 5 nM): 1.03 ± 0.17
- surviving fraction (SNX-5422 [2]; 10 nM): 1 ± 0.079
- surviving fraction (SNX-5422 [2]; 50 nM): 0.0547 ± 0.01
- surviving fraction (SNX-5422 [2]; 100 nM): 0.113 ± 0.049
- surviving fraction (SNX-5422 [2]; 500 nM): 0.0627 ± 0.016
- surviving fraction (SNX-5422 [2]; 1000 nM): 0.088 ± 0.007
- surviving fraction (SAPACITABINE [3]; 0.5 nM): 0.831 ± 0.058
- surviving fraction (SAPACITABINE [3]; 1 nM): 0.916 ± 0.25
- surviving fraction (SAPACITABINE [3]; 5 nM): 0.913 ± 0.038
- surviving fraction (SAPACITABINE [3]; 10 nM): 0.354 ± 0.035
- surviving fraction (SAPACITABINE [3]; 50 nM): 0.445 ± 0.095
- surviving fraction (SAPACITABINE [3]; 100 nM): 0.123 ± 0.052
- surviving fraction (SAPACITABINE [3]; 500 nM): 0.039 ± 0.0087
- surviving fraction (SAPACITABINE [3]; 1000 nM): 0.0357 ± 0.0059
- surviving fraction (BI-2536 [4]; 0.5 nM): 0.932 ± 0.33
- surviving fraction (BI-2536 [4]; 1 nM): 0.781 ± 0.13
- surviving fraction (BI-2536 [4]; 5 nM): 0.16 ± 0.03
- surviving fraction (BI-2536 [4]; 10 nM): 0.091 ± 0.031
- surviving fraction (BI-2536 [4]; 50 nM): 0.0883 ± 0.011
- surviving fraction (BI-2536 [4]; 100 nM): 0.156 ± 0.023
- surviving fraction (BI-2536 [4]; 500 nM): 0.112 ± 0.021
- surviving fraction (BI-2536 [4]; 1000 nM): 0.0973 ± 0.01
- surviving fraction (AFATINIB [5]; 0.5 nM): 0.943 ± 0.12
- surviving fraction (AFATINIB [5]; 1 nM): 0.936 ± 0.17
- surviving fraction (AFATINIB [5]; 5 nM): 0.867 ± 0.21
- surviving fraction (AFATINIB [5]; 10 nM): 0.787 ± 0.19
- surviving fraction (AFATINIB [5]; 50 nM): 0.64 ± 0.16
- surviving fraction (AFATINIB [5]; 100 nM): 0.682 ± 0.13
- surviving fraction (AFATINIB [5]; 500 nM): 0.383 ± 0.13
- surviving fraction (AFATINIB [5]; 1000 nM): 0.235 ± 0.027
- surviving fraction (MDV3100 [6]; 0.5 nM): 0.976 ± 0.13
- surviving fraction (MDV3100 [6]; 1 nM): 0.75 ± 0.27
- surviving fraction (MDV3100 [6]; 5 nM): 1.03 ± 0.11
- surviving fraction (MDV3100 [6]; 10 nM): 0.972 ± 0.14
- surviving fraction (MDV3100 [6]; 50 nM): 0.799 ± 0.14
- surviving fraction (MDV3100 [6]; 100 nM): 0.925 ± 0.092
- surviving fraction (MDV3100 [6]; 500 nM): 0.664 ± 0.045
- surviving fraction (MDV3100 [6]; 1000 nM): 0.451 ± 0.051
- surviving fraction ([7]; 0.5 nM): 0.91 ± 0.095
- surviving fraction ([7]; 1 nM): 1.13 ± 0.26
- surviving fraction ([7]; 5 nM): 0.993 ± 0.07
- surviving fraction ([7]; 10 nM): 1.03 ± 0.17
- surviving fraction ([7]; 50 nM): 0.887 ± 0.11
- surviving fraction ([7]; 100 nM): 0.471 ± 0.29
- surviving fraction ([7]; 500 nM): 0.0453 ± 0.011
- surviving fraction ([7]; 1000 nM): 0.0623 ± 0.013
- surviving fraction (TIOGUANINE [8]; 0.5 nM): 0.726 ± 0.091
- surviving fraction (TIOGUANINE [8]; 1 nM): 0.781 ± 0.21
- surviving fraction (TIOGUANINE [8]; 5 nM): 0.854 ± 0.13
- surviving fraction (TIOGUANINE [8]; 10 nM): 0.685 ± 0.23
- surviving fraction (TIOGUANINE [8]; 50 nM): 0.866 ± 0.086
- surviving fraction (TIOGUANINE [8]; 100 nM): 0.853 ± 0.059
- surviving fraction (TIOGUANINE [8]; 500 nM): 0.743 ± 0.2
- surviving fraction (TIOGUANINE [8]; 1000 nM): 0.773 ± 0.088
- area under dose-response curve (CANERTINIB [9]): 2.55
- area under dose-response curve (SNX-5422 [10]): 1.71
- area under dose-response curve (SAPACITABINE [11]): 1.52
- area under dose-response curve (BI-2536 [12]): 0.803
- area under dose-response curve (AFATINIB [13]): 2.33
- area under dose-response curve (MDV3100 [14]): 2.9
- area under dose-response curve [15]: 2.33
- area under dose-response curve (TIOGUANINE [16]): 2.59
